Results on eight molecules are retold here after patent US20260248788A1, “NEW COMPOUNDS AND TREATMENT OF RENAL CELL CARCINOMA” (TRUSTLIFE THERAPEUTICS INC., priority 2023, published 2026).

Type in all cases: cell-based, human
The test system of series [1] is Caki-1 cells. In words: LDH cytotoxicity assay. As to conditions: for cytotoxicity (LDH assay): Caki-1, 10 μM; for cytotoxicity (LDH assay) / Ranking, Cytotoxicity (%): 1 day; for cell death / toxicity (LDH): Caki-1, 10 and 30 μM; for cytotoxicity according to LDH assay (conclusion): Caki-1; for cytotoxicity according to LDH assay (conclusion) / cytotoxicity (summary statement): concentration not given; for cytotoxic effect and dose dependence: Caki-1, 10 nM-30 μM; for Ranking, Cytotoxicity (%): top five, LDH assay, 10 μM, rank 1 = highest. As for the experimental part: (§1) Cell culture 2: Caki-1 was purchased from CLS Cell Lines Service (Germany). The cells were maintained in McCoy's 5A (modified) medium (16600082, Thermo Fisher Scientific, USA) and supplemented with 10% fetal bovine serum (FBS, F7524, Sigma-Aldrich), 1% Penicillin/Streptomycin (P4333, Sigma-Aldrich).
Lactate dehydrogenase (LDH) assay was performed with LDH Assay Kit (ab65393). […] 20 μl of media was analysed with LDH Assay Kit as per manufacturer's instruction.

Series [2] concerns Caki-1 cells. In words: Cell morphology (DIC images) of treated Caki-1 cells. As to conditions: Caki-1, 10 μM, 1 day; for effect on the cell morphology: DIC images (FIG. 52). The source says:
The effect of treatment of Caki-1 cells with the target compounds was further evaluated by monitoring the cell morphology of treated cells, see FIG. 52.

Series [3] deals with Caki-1 cells. Nature of the series: MTT cell viability assay. To be noted: for reduction in cell viability (MTT) / effect on cell viability (MTT): 1 day; for cell viability over the treatment period (MTT): 27 h, 48 h and 72 h (FIG. 55); for reduction in cell viability according to MTT assay (conclusion): Caki-1; for reduction in cell viability according to MTT assay (conclusion) / cell viability of treated cells (summary statement): concentration not given; for change of IC50 values after 2 days compared to 1 day treatment: Caki-1 (FIG. 53-54); for IC50 values compared with TG-101209: Caki-1, 1 and 2 days (FIG. 53-54). As for the experimental part:
as §1
The cytotoxic effects of the TG-101209 and its alternatives on the Caki-1 cells were tested by MTT (Thiazolyl Blue Tetrazolium Bromide) method. 1.5×10^4 cells were seeded per well in a 96-well plate in 100 μL growth media. […] After the incubation period, 5 mg/ml MTT (M2128, Sigma-Aldrich) solution in PBS (10 μL) was added to each well. After 1 hour, the MTT solution and all media were removed from the wells. 100 μl of DMSO was added and mixed to dissolve the formazan crystals. Cell viability was analysed by measuring the absorbance of the dissolved formazan at a wavelength of 570 nm with a microplate reader (Hidex Sense Beta Plus).
In general terms: Formazan colour is commonly taken as a measure of viable cells.

The next series relates to BUB1B. In words: Western blot of BUB1B in Caki-1 cells treated with TG-101209 derivatives. To be noted: for expression levels of BUB1B (Western blot): Caki-1 cells, 5 μM of target drug, 1 day (FIG. 41, 56); for expression levels of BUB1B (summary statement): concentration not given. The method, then: as §1
The target drugs developed as alternatives to TG-101209, were dissolved in 0.1% DMSO (41639, Sigma-Aldrich). Caki-1 cells from cell culture 2 were seeded in a 6-well plate at 3×10^5 cells per well. […]
The cells were washed with PBS solution and then lysed with CelLytic M (C2978, Sigma-Aldrich) lysis buffer containing protease inhibitors (11836170001, Roche). The cell lysates were centrifuged at 12 000 rpm for 10 min and supernatants were collected. Protein Assay Dye Reagent (5000006, Bio-Rad) was used for the determination of protein concentration. The absorbance of the proteins was measured spectrophotometrically at 595 nm by a microplate reader (Hidex Sense Beta Plus). Protein electrophoresis was performed using Mini-PROTEAN® TGX™ Precast Gels (4561086, Bio-Rad) and then the separated proteins were transferred to a Trans-Blot Turbo Mini 0.2 μm PVDF Transfer Packs membrane (1704158, Bio-Rad) by using Trans-Blot® Turbo™ Transfer System (Bio-Rad). The membrane was blocked with 5% skim milk for 30 min at 4° C. with gentle rocking. After blocking, the membrane was treated with primary antibodies: Anti-BUB1B (HPA008419, Human Protein Atlas, Sweden) and Anti-Beta actin (ab8227, Abcam) as a loading control overnight at 4° C. on a rocking platform. After the treatment of primary antibodies, the membrane was washed three times with TBS-T buffer (A09-7500-100, Medicago). Then, Goat anti-Rabbit IgG-HRP (ab205718, Abcam) was treated as the secondary antibody for 30 min at 4° C. with gentle rocking.
On the technique in general: A western blot detects proteins with antibodies after separation by electrophoresis.

SMILES strings stand for the structures. “Also recorded” adds a separate entry of the source.

Take `Cc1cnc(Nc2ccc(C(=O)Nc3ccc(N4CCN(C)CC4)cc3)cc2)nc1Nc1cccc(S(=O)(=O)NC(C)(C)C)c1` [Compound M101N, 4-((4-((3-(N-(tert-butyl)sulfamoyl)phenyl)amino)-5-methylpyrimidin-2-yl)amino)-N-(4-(4-methylpiperazin-1-yl)phenyl)benzamide]: in the series with Caki-1 cells [1] (second batch), the “cytotoxicity (LDH assay)” value is given as “greatest cytotoxicity”. In addition, in the series with Caki-1 cells [1], the “cell death / toxicity (LDH)” value is “strong toxicity”, the “cytotoxicity according to LDH assay (conclusion)” value (“cytotoxicity according” for short) was “greatest cytotoxicity” and the “cytotoxicity (summary statement)” value is reported as “high cytotoxicity”. Also, in the series on Caki-1 cells [2], the “mechanism according to morphology evaluation” value was “work as cytotoxic agents” and the “effect on the cell morphology” value is reported as “distinct effect on the cell morphology”. For the same molecule, in the series on Caki-1 cells [3] (Caki-1, 10 μM, second batch), the “reduction in cell viability (MTT)” value is “the greatest”. In addition, in the series on Caki-1 cells [3] (Caki-1, 10 μM), the “cell viability over the treatment period (MTT)” value is “larger decrease in cell viability than TG-101209”. Also, in the series on Caki-1 cells [3], the “reduction in cell viability according to MTT assay (conclusion)” value (shortened to “reduction in cell viability according”) is recorded as “greatest reduction in cell viability” and the “cell viability of treated cells (summary statement)” value (shortened to “cell viability of treated cells”) is “particularly low cell viability; also recorded: significantly reduced cell viability”. Further, the “expression levels of BUB1B (Western blot)” value with BUB1B is reported as “did not affect the expression levels of BUB1B”.
For the molecule `COc1cc(Nc2ncc(C)c(Nc3cccc(S(=O)(=O)NC(C)(C)C)c3)n2)cc(OC)c1OC` [Compound M76, N-(tert-butyl)-3-((5-methyl-2-((3,4,5-trimethoxyphenyl)amino)pyrimidin-4-yl)amino)benzenesulfonamide], in the series with Caki-1 cells [1], the “cytotoxic effect and dose dependence” value is listed as “dose dependent toxicity”; the “cytotoxicity according” value is given as “greatest cytotoxicity”. Further, in the series with Caki-1 cells [2], the “mechanism according to morphology evaluation” value was “cell growth inhibition mechanism” and the “effect on the cell morphology” value is recorded as “distinct effect on the cell morphology”. Besides, in the series with Caki-1 cells [3], the “change of IC50 values after 2 days compared to 1 day treatment” value is “largest decrease”, the “IC50 values compared with TG-101209” value is reported as “better IC50 values than TG-101209”, the “reduction in cell viability according” value is listed as “greatest reduction in cell viability” and the “cell viability of treated cells” value is “especially low cell viability; also recorded: significantly reduced cell viability”. Further, in the series with Caki-1 cells [3] (Caki-1, 10 μM, second batch), the “reduction in cell viability (MTT)” value was “the greatest”. Also, the “cell viability over the treatment period (MTT)” value with Caki-1 cells [3] (Caki-1, 10 μM) was “larger decrease in cell viability than TG-101209”. For the same molecule, the “IC50 value after treatment for 1 day” value with Caki-1 cells [3] (Caki-1, doses 10 nM to 30 μM (FIG. 53)) is recorded as “lowest IC50 value”. In addition, in the series with BUB1B, the “expression levels of BUB1B (Western blot)” value is recorded as “ability to lower the expression levels of BUB1B” and the “expression levels of BUB1B (summary statement)” value is “reduction of the expression levels of BUB1B”.
With `Cc1cnc(Nc2ccc(C(=O)Nc3ccc(OCCN4CCCC4)cc3)cc2)nc1Nc1cccc(S(=O)(=O)NC(C)(C)C)c1` [Compound M101P, 4-((4-((3-(N-(tert-butyl)sulfamoyl)phenyl)amino)-5-methylpyrimidin-2-yl)amino)-N-(4-(2-(pyrrolidin-1-yl)ethoxy)phenyl)benzamide], the “cytotoxicity (LDH assay)” value in the series with Caki-1 cells [1] (second batch) is “greatest cytotoxicity”. Moreover, in the series with Caki-1 cells [1], the “cell death / toxicity (LDH)” value was “strong toxicity”, the “cytotoxicity according” value is on record as “greatest cytotoxicity” and the “cytotoxicity (summary statement)” value was “high cytotoxicity”. In the series on Caki-1 cells [2], the “mechanism according to morphology evaluation” value is on record as “work as cytotoxic agents” and the “effect on the cell morphology” value was “distinct effect on the cell morphology”. Further, in the series on Caki-1 cells [3] (Caki-1, 10 μM, second batch), the “reduction in cell viability (MTT)” value is on record as “the greatest”. Moreover, the “cell viability over the treatment period (MTT)” value in the series on Caki-1 cells [3] (Caki-1, 10 μM) is reported as “larger decrease in cell viability than TG-101209”. Besides, in the series on Caki-1 cells [3], the “reduction in cell viability according” value is recorded as “greatest reduction in cell viability” and the “cell viability of treated cells” value is given as “particularly low cell viability; also recorded: significantly reduced cell viability”. Besides, in the series on BUB1B, the “expression levels of BUB1B (Western blot)” value was “ability to lower the expression levels of BUB1B”.
As for `COc1cc(Nc2ncc(C)c(Nc3cccc(S(=O)(=O)NC(C)(C)C)c3)n2)cc(OC)c1` [Compound M79, N-(tert-butyl)-3-((2-((3,5-dimethoxyphenyl)amino)-5-methylpyrimidin-4-yl)amino)benzenesulfonamide], the “cell viability of treated cells” value in the series on Caki-1 cells [3] is “especially low cell viability; also recorded: significantly reduced cell viability”. Besides, in the series on BUB1B, the “expression levels of BUB1B (Western blot)” value is “significantly lower the expression levels of BUB1B” and the “expression levels of BUB1B (summary statement)” value is “reduction of the expression levels of BUB1B”.
Turning to `COc1cc(Nc2ncc(C)c(Nc3cccc(S(=O)(=O)NC4CCC4)c3)n2)cc(OC)c1OC` [Compound M120, N-cyclobutyl-3-((5-methyl-2-((3,4,5-trimethoxyphenyl)amino)pyrimidin-4-yl)amino)benzenesulfonamide], the “reduction in cell viability (MTT)” value with Caki-1 cells [3] (Caki-1, 10 μM, second batch) is “the greatest”. For the same molecule, the “cell viability of treated cells” value in the series on Caki-1 cells [3] is “especially low cell viability; also recorded: particularly low cell viability; also recorded: significantly reduced cell viability”. In the series on BUB1B, the “expression levels of BUB1B (summary statement)” value is on record as “reduction of the expression levels of BUB1B”.
As to `Cc1ccc(Nc2ncc(C)c(Nc3cccc(S(=O)(=O)NC(C)(C)C)c3)n2)cc1S(N)(=O)=O` [Compound M66, N-(tert-butyl)-3-((5-methyl-2-((4-methyl-3-sulfamoylphenyl)amino)pyrimidin-4-yl)amino)benzenesulfonamide], in the series on Caki-1 cells [1] (first batch), the “cytotoxicity (LDH assay)” value was “exhibited cytotoxicity”. For the same molecule, the “Ranking, Cytotoxicity (%)” value in the series with Caki-1 cells [1] is listed as 4. Besides, in the series on Caki-1 cells [3] (Caki-1, 5 μM, first batch), the “reduction in cell viability (MTT)” value is given as “the greatest”. The “effect on cell viability (MTT)” value in the series on Caki-1 cells [3] (Caki-1, 10 μM, first batch) was “most profound effect”. The “cell viability of treated cells” value with Caki-1 cells [3] is given as “particularly low cell viability; also recorded: significantly reduced cell viability”. Moreover, in the series on BUB1B, the “expression levels of BUB1B (Western blot)” value was “significantly lower the expression levels of BUB1B” and the “expression levels of BUB1B (summary statement)” value is given as “reduction of the expression levels of BUB1B”.
Take `Cc1cnc(Nc2ccc(N3CCN(C)CC3)cc2)nc1Nc1cccc(S(=O)(=O)NC2CCC2)c1` [Compound M5, N-cyclobutyl-3-((5-methyl-2-((4-(4-methylpiperazin-1-yl)phenyl)amino)pyrimidin-4-yl)amino)benzenesulfonamide]: in the series with Caki-1 cells [1], the “cytotoxic effect and dose dependence” value is given as “dose dependent toxicity”; the “Ranking, Cytotoxicity (%)” value was 2. The “cytotoxicity (LDH assay)” value in the series on Caki-1 cells [1] (first batch) was “highest cytotoxicity”. In the series with Caki-1 cells [2], the “mechanism according to morphology evaluation” value is on record as “cell growth inhibition mechanism” and the “effect on the cell morphology” value is listed as “distinct effect on the cell morphology”. Further, in the series on Caki-1 cells [3], the “change of IC50 values after 2 days compared to 1 day treatment” value is reported as “largest decrease”, the “IC50 values compared with TG-101209” value is on record as “better IC50 values than TG-101209” and the “cell viability of treated cells” value was “especially low cell viability; also recorded: particularly low cell viability”. Further, the “reduction in cell viability (MTT)” value in the series with Caki-1 cells [3] (Caki-1, 5 μM, first batch) is given as “the greatest”. The “effect on cell viability (MTT)” value with Caki-1 cells [3] (Caki-1, 10 μM, first batch) is listed as “greatest reduction of cell viability”. The “cell viability over the treatment period (MTT)” value in the series with Caki-1 cells [3] (Caki-1, 10 μM) is recorded as “larger decrease in cell viability than TG-101209”. Also, in the series on BUB1B, the “expression levels of BUB1B (Western blot)” value is “significantly lower the expression levels of BUB1B” and the “expression levels of BUB1B (summary statement)” value is listed as “reduction of the expression levels of BUB1B”.
Turning to `Cc1cnc(Nc2ccc(N3CCN(C)CC3)cc2)nc1Nc1cccc(S(=O)(=O)N2CCOCC2)c1` [Compound M7, 5-methyl-N2-(4-(4-methylpiperazin-1-yl)phenyl)-N4-(3-(morpholinosulfonyl)phenyl)pyrimidine-2,4-diamine], the “cell viability of treated cells” value in the series with Caki-1 cells [3] is “especially low cell viability; also recorded: reduced cell viability”. Also, in the series on BUB1B, the “expression levels of BUB1B (Western blot)” value is listed as “significantly lower the expression levels of BUB1B” and the “expression levels of BUB1B (summary statement)” value was “reduction of the expression levels of BUB1B”.
